Test results taken from patent publication US7718390B2, “Toxoplasma gondii cylclic GMP dependent protein kinase G as a chemotherapeutic target for antiprotozoal agents” (priority 1999, dated 2010).
Where two headings read alike, the source gives them in different places.

What was measured:
E. tenella PKG = E. tenella PKG (Eimeria tenella, UniProt Q8MMZ8); assay: biochemical; format: biochemical; conditions: for IC50: read-out: IC50, inhibition of PKG catalytic activity
Experimental: The enzyme inhibition assay involves adding PKG or an extract containing PKG to mixtures of enzyme substrates (one of which is radiolableled) and the test compound, each of which are present in known concentrations. The amount of the enzyme is chosen such that less than 20% of the radiolabeled substrate (usually [^32P]- or [^33P]-ATP,) is consumed during the assay. The assay is carried out with the test compound at a series of different dilution levels. After a period of incubation, the labeled portion of the ATP substrate becomes covalently attached by enzymatic action to the peptide or protein substrate. This reaction product is separated from unincorporated precursor and counted.
E. tenella PKG purified fraction (obtained as described in Example 3) (0.05 μl) is incubated for 2 hours at room temperature in 20 μl of an incubation mixture containing: 25 mM HEPES, pH 7.4, 10 mM MgCl2, 5 mM beta-mercaptoethanol, 20 mM beta-glycerophosphate (or 100 μM sodium orthovanadate), 10 μM cGMP, 2 μM ATP, 10 nM [^33P] ATP (2000 Ci/mmole), 400 μM Kemptide (or 2 mM Kemptide or 0.43 mg/ml myelin basic protein). The reaction is then quenched with 2.5 μl of 0.25 M phosphoric acid per 20 μl assay volume, and the mixture is spotted on Whatman P81 chromatography paper. The chromatography paper is allowed to dry for 2 minutes, washed 5 times for 3 min. each with 150 mls of 75 mM phosphoric acid, then washed briefly with 95% ethanol. After air drying, labeled kemptide remaining on the filter is quantitated by liquid scintillation counting.
E. tenella PKG purified fraction as described above (0.05 μl) was incubated for 2 hours at room temperature in 20 μl of an incubation mixture containing: 25 mM HEPES, pH 7.4, 10 mM MgCl2, 5 mM beta-mercaptoethanol, 20 mM beta-glycerophosphate (or 100 μM sodium orthovanadate), 10 μM cGMP, 2 μM ATP, 10 nM [^33P] ATP (2000 Ci/mmole), 400 μM Kemptide (or 2 mM Kemptide or 0.43 mg/ml myelin basic protein). […] After air drying, labeled kemptide remaining on the filter was quantitated by liquid scintillation counting.

[1] = tested on: E. tenella PKG (120 kDa protein); assay: Competitive binding assay using [3H] Inhibitor Compound; design: species or system Eimeria tenella; conditions: purified native PKG fraction
Experimental: PKG is incubated with appropriately diluted [^3H] Inhibitor Compound for 60 minutes on ice and free ligand is separated from bound ligand by elution through 0.8 ml G-25 gel filtration columns (purchased from AGTC). The void volume, containing ligand-bound protein, is collected and radioactivity assessed by liquid scintillation counting. For competitive binding studies, excess or appropriately diluted cold competitor(s) are added simultaneously with, or 0.01-5 minutes before, the addition of radiolabeled compound. The concentration of the test compound required to inhibit 50% (IC50) of the binding of the labeled inhibitor to the parasite drug binding protein(s) is calculated.
For the competitive binding assay PKG may be the S100 fraction, crude preparation containing PKG activity, or recombinant PKG. Generally, the PKG preparation contains 20-50 μg of protein.
The S100 fraction was dialyzed against 2 L of Buffer A (30 mM sodium phosphate, pH 7.4, 1 mM DTT, 1 mM EDTA, 20% glycerol, 10 mM sodium fluoride, 0.1 mM sodium orthovanadate) overnight at room temperature. The dialysate was centrifuged at 100,000×g for 1 hour and the pellet discarded. […]
(d) cGMP agarose affinity chromatography. […] Fractions were analyzed for [^3H]-Inhibitor Compound binding, PKG activity and by silver staining following polyacrylamide gel electrophoresis. […]

Chain of E. tenella PKG (Q8MMZ8 2-1003): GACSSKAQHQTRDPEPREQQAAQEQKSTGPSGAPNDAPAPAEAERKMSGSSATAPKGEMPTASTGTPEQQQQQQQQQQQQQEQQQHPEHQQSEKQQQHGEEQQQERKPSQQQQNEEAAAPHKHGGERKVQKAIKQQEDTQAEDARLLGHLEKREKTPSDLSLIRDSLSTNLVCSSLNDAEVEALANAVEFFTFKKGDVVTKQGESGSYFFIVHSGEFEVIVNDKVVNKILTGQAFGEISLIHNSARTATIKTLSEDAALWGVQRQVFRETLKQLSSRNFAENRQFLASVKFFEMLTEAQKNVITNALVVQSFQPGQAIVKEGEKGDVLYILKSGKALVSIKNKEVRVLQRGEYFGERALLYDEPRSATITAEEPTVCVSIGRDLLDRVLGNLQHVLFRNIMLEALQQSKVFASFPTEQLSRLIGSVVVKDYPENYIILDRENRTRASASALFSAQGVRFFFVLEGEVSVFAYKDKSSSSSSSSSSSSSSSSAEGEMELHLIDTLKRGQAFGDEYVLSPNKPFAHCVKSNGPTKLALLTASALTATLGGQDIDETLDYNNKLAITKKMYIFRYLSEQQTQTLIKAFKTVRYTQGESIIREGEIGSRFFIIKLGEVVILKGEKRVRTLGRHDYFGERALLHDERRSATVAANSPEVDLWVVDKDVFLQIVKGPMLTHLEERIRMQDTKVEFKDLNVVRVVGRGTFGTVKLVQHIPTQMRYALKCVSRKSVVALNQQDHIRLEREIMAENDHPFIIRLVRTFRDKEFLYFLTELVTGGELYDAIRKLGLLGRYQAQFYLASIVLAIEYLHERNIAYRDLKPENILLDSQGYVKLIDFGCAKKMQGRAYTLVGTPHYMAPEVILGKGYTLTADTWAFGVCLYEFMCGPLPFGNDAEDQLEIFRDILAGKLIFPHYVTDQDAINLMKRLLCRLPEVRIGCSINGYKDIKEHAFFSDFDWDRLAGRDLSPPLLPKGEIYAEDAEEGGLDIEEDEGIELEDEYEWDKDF

Row | Structure (SMILES) | IC50 (E. tenella PKG; native E. tenella PKG) [nM] | IC50 (E. tenella PKG; recombinant expressed E. tenella PKG (Et.PKG7, Sf9 cells)) [nM] | binding to the 120 kDa E. tenella protein (PKG) [1] | stimulation of kinase activity by cyclic nucleotide cofactor (E. tenella PKG; biochemically purified native E. tenella protein, compared with absence of cyclic nucleotide cofactors)
1 | CN1CCC(c2cc(-c3ccncc3)c(-c3ccc(F)cc3)[nH]2)CC1 [Inhibitor Compound, 2-(4-fluorophenyl)-5-(N-methylpiperidin-4-yl)-3-(4-pyridyl)pyrrole] | < 5 | < 5 | specifically binds | –
2 | Nc1nc2c(ncn2[C@@H]2O[C@@H]3COP(=O)(O)O[C@H]3[C@H]2O)c(=O)[nH]1 [cGMP] | – | – | – | greater than 400 fold
